Measured values: patent publication US11976084B2, “Spiropyrrolidine derived antiviral agents” (Enanta Pharmaceuticals, Inc., priority 2020, dated 2024)

What follows are compounds tested against SARS-CoV-2 3CL-protease (Severe acute respiratory syndrome coronavirus 2, UniProt P0DTD1) (assay: SARS-CoV-2 3C-like (3CL) protease fluorescence assay (FRET)). Conditions: recombinant SARS-CoV-2 3CL-protease 10 nM, 30 min preincubation at RT, TAMRA-[…]-Dabcyl-OH substrate, run in duplicate.
Assay type: biochemical
Method: SARS-CoV-2 3C-like (3CL) protease fluorescence assay (FRET): Recombinant SARS-CoV-2 3CL-protease was expressed and purified. TAMRA-[…]-Dabcyl-OH peptide 3CLpro substrate was synthesized. Black, low volume, round-bottom, 384 well microplates were used. In a typical assay, 0.85 μL of test compound was dissolved in DMSO then incubated with SARS-CoV-2 3CL-protease (10 nM) in 10 μL assay buffer (50 mM HEPES [pH 7.5], 1 mM DTT, 0.01% BSA, 0.01% Triton-X 100) for 30 min at RT. Next, 10 μL of 3CL-protease substrate (40 μM) in assay buffer was added and the assays were monitored continuously for 1 h in an Envision multimode plate reader operating in fluorescence kinetics mode with excitation at 540 nm and emission at 580 nm at RT. No compound (DMSO only) and no enzyme controls were routinely included in each plate. All experiments were run in duplicate. Data Analysis: SARS-CoV-2 3CL-protease enzyme activity was measured as initial velocity of the linear phase (RFU/s) and normalized to controlled samples DMSO (100% activity) and no enzyme (0% activity) to determine percent residual activity at various concentrations of test compounds (0-10 μM). Data were fitted to normalized activity (variable slope) versus concentration fit in GraphPad Prism 7 to determine IC50.

| SMILES | IC50 [nM] |
| --- | --- |
| COc1cccc2[nH]c(C(=O)N3C[C@@]4(C[C@H]3C(=O)N3C[C@]5(C[C@H]3C#N)C(=O)Nc3ccccc35)CC4(F)F)cc12 [Example 4] | 100 to 1000 |
| COc1cccc2[nH]c(C(=O)N3CC4(CC4)C[C@H]3C(=O)N3C[C@]4(C[C@H]3C#N)C(=O)Nc3ccccc34)cc12 [Example 2] | 100 to 1000 |
| COc1cccc2oc(C(=O)N3C[C@H]4[C@@H]([C@H]3C(=O)N3C[C@]5(C[C@H]3C#N)C(=O)Nc3ccccc35)C4(C)C)cc12 [Example 3] | < 100 |
| N#C[C@@H]1C[C@@]2(CN1C(=O)[C@@H]1[C@H]3CCC[C@H]3CN1C(=O)OCc1ccccc1)C(=O)Nc1ccccc12 [Example 6] | 100 to 1000 |
| COc1cccc2[nH]c(C(=O)N3[C@@H]4C[C@@H]4C[C@H]3C(=O)N3C[C@]4(C[C@H]3C#N)C(=O)Nc3ccccc34)cc12 [Example 5] | < 100 |
| CC1(C)[C@@H]2[C@@H](C(=O)N3C[C@]4(C[C@H]3C#N)C(=O)Nc3ccccc34)N(C(=O)c3cc4c(OC(F)F)cccc4[nH]3)C[C@@H]21 [Example 8] | 100 to 1000 |
| COc1cccc2[nH]c(C(=O)N3C[C@@H]4CCC[C@@H]4[C@H]3C(=O)N3C[C@]4(C[C@H]3C#N)C(=O)Nc3ccccc34)cc12 [Example 1] | < 100 |
| N#C[C@@H]1C[C@@]2(CN1C(=O)[C@@H]1[C@H]3CCC[C@H]3CN1C(=O)c1cc3c(F)cc(F)cc3[nH]1)C(=O)Nc1ccccc12 [Example 7] | 100 to 1000 |
